Source: ChEMBL document CHEMBL5143683, “Explorations of novel pyridine-pyrimidine hybrid phosphonate derivatives as aurora kinase inhibitors” (Bioorg Med Chem Lett, 2022)
Activity calls are given as the source filed them. No cut-off for these calls is given here.

What was measured:
A549 = test: Anticancer activity against human A549 cells assessed as reduction in cell viability measured after 24 hrs by MTT assay; assay type: functional, cell-based; settings: A549, 24 h
HepG2 [1] = test: Anticancer activity against human HepG2 cells assessed as reduction in cell viability measured after 24 hrs by MTT assay; assay type: functional, cell-based; settings: HepG2, 24 h
HeLa [2] = test: Anticancer activity against human HeLa cells assessed as reduction in cell viability measured after 24 hrs by MTT assay; assay type: functional, cell-based
MCF7 = test: Anticancer activity against human MCF7 cells assessed as reduction in cell viability measured after 24 hrs by MTT assay; assay type: functional, cell-based; settings: MCF7, 24 h
HL-60 = test: Anticancer activity against human HL-60 cells assessed as reduction in cell viability measured after 24 hrs by MTT assay; assay type: functional, cell-based; settings: HL-60, 24 h
[3] = Cytotoxicity against human L02 cells assessed as reduction in cell viability measured after 24 hrs by MTT assay; assay type: toxicity, cell-based
[4] = Selectivity index, ratio of IC50 for human L02 cells to IC50 for human Hep-G2 cells; assay type: toxicity; settings: L02 cells and Hep-G2 cells, read-out: Ratio IC50
Aurora kinase A = molecular target: T1, Aurora kinase A (Homo sapiens, UniProt O14965); test: Inhibition of Aurora A (unknown origin) using kemptide acetate as substrate measured after 30 mins by kinase-glo luminescence assay
T1 sequence (O14965 whole entry): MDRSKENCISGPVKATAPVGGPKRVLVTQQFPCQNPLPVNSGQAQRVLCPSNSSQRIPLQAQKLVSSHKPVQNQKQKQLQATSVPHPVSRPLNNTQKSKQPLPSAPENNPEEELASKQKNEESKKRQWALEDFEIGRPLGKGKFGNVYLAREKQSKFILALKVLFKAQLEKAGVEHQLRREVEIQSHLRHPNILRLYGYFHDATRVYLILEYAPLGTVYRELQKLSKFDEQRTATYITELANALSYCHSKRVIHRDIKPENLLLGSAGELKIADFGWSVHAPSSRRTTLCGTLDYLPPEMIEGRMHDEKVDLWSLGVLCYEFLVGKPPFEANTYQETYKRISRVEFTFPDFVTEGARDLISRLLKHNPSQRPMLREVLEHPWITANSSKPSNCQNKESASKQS

Aurora kinase B = Aurora kinase B (Homo sapiens, UniProt Q96GD4); test: Inhibition of Aurora B (unknown origin) using kemptide acetate as substrate measured after 30 mins by kinase-glo luminescence assay
Aurora kinase B, sequence (Q96GD4 whole entry): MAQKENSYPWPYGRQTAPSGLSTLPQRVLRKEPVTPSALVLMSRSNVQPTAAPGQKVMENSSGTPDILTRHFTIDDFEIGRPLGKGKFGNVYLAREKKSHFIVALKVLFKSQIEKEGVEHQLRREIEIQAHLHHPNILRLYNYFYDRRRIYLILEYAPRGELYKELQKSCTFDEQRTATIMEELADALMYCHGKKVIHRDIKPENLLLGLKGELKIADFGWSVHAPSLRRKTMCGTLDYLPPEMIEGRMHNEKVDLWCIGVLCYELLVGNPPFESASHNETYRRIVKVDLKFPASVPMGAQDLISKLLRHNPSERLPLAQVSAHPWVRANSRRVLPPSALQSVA

HepG2 [5] = test: Induction of morphological changes in human HepG2 cells assessed as cell detachment at IC50 by inverted microscopy; assay type: functional, cell-based
HepG2 [6] = test: Induction of morphological changes in human HepG2 cells assessed as […] at IC50 by inverted microscopy; assay type: functional, cell-based
HepG2 [7] = test: Induction of morphological changes in human HepG2 cells assessed as cell shrinkage at IC50 by inverted microscopy; assay type: functional, cell-based
HepG2 [8] = test: Induction of morphological changes in human HepG2 cells assessed as reduction in number of viable cells at IC50 by inverted microscopy; assay type: functional, cell-based
HeLa [9] = test: Induction of morphological changes in human HeLa cells assessed as cell detachment at IC50 by inverted microscopy; assay type: functional, cell-based
HeLa [10] = test: Induction of morphological changes in human HeLa cells assessed as […] at IC50 by inverted microscopy; assay type: functional, cell-based
HeLa [11] = test: Induction of morphological changes in human HeLa cells assessed as cell shrinkage at IC50 by inverted microscopy; assay type: functional, cell-based
HeLa [12] = test: Induction of morphological changes in human HeLa cells assessed as reduction in number of viable cells at IC50 by inverted microscopy; assay type: functional, cell-based

IC50 (A549) [µM] | IC50 (HepG2 [1]) [µM] | IC50 (HeLa [2]) [µM] | IC50 (MCF7) [µM] | IC50 (HL-60) [µM] | IC50 (Aurora kinase A) [µM] | IC50 (Aurora kinase B) [µM] | Structure (SMILES) | IC50 at 24 h [3] [µM] | selectivity ratio [4] | Activity (HepG2 [5]) | Activity (HepG2 [6]) | Activity (HepG2 [7]) | Activity (HepG2 [8]) | Activity (HeLa [9]) | Activity (HeLa [10]) | Activity (HeLa [11]) | Activity (HeLa [12])
25 | 25 | 12.9 | 7.07 | 8.24 | – | – | CCOP(=O)(OCC)C(Nc1ccc(C)c(Nc2nccc(-c3cccnc3)n2)c1)c1ccc(Cl)c(Cl)c1 (stereo not given) | – | – | – | – | – | – | – | – | – | –
13.8 | 18 | 6.02 | 1.55 | 2.32 | 0.033 | 0.015 | CCOP(=O)(OCC)C(Nc1ccc(C)c(Nc2nccc(-c3cccnc3)n2)c1)c1scnc1C (stereo not given) | 74.9 | 5.5 | – | – | – | – | – | – | – | –
15.7 | 18.8 | 7.01 | 2.46 | 2.99 | – | – | CCOP(=O)(OCC)C(Nc1ccc(C)c(Nc2nccc(-c3cccnc3)n2)c1)c1ccsc1 (stereo not given) | – | – | – | – | – | – | – | – | – | –
15.8 | 18.9 | 7.16 | 3.36 | 3.78 | – | – | CCOP(=O)(OCC)C(Nc1ccc(C)c(Nc2nccc(-c3cccnc3)n2)c1)c1ccco1 (stereo not given) | – | – | – | – | – | – | – | – | – | –
21.6 | 21.6 | 10.4 | 5.67 | 5.98 | – | – | CCOP(=O)(OCC)C(Nc1ccc(C)c(Nc2nccc(-c3cccnc3)n2)c1)c1ccc(O)cc1 (stereo not given) | – | – | – | – | – | – | – | – | – | –
28.1 | 28.5 | 18.1 | 6.38 | 7.22 | – | – | CCOP(=O)(OCC)C(Nc1ccc(C)c(Nc2nccc(-c3cccnc3)n2)c1)c1ccncc1 (stereo not given) | – | – | – | – | – | – | – | – | – | –
21.4 | 21.5 | 10.2 | 5.32 | 6.39 | – | – | CCOP(=O)(OCC)C(Nc1ccc(C)c(Nc2nccc(-c3cccnc3)n2)c1)c1ccc(N)cc1 (stereo not given) | – | – | – | – | – | – | – | – | – | –
15.1 | 18 | 6.24 | 1.02 | 1.88 | – | – | Cc1cc(Nc2cc(N3CCN(C)CC3)nc(Sc3ccc(NC(=O)C4CC4)cc3)n2)n[nH]1 [TOZASERTIB] | – | – | – | – | – | – | – | – | – | –
29.2 | 30.5 | 20.3 | 6.82 | 7.65 | – | – | CCOP(=O)(OCC)C(Nc1ccc(C)c(Nc2nccc(-c3cccnc3)n2)c1)N1CCOCC1 (stereo not given) | – | – | – | – | – | – | – | – | – | –
22 | 21.9 | 10.6 | 5.96 | 6.75 | – | – | CCOP(=O)(OCC)C(Nc1ccc(C)c(Nc2nccc(-c3cccnc3)n2)c1)c1ccc(C)cc1 (stereo not given) | – | – | – | – | – | – | – | – | – | –
18.2 | 19.9 | 8.94 | 4.66 | 4.92 | – | – | CCOP(=O)(OCC)C(Nc1ccc(C)c(Nc2nccc(-c3cccnc3)n2)c1)c1c[nH]c2ccccc12 (stereo not given) | – | – | – | – | – | – | – | – | – | –
24.1 | 24.9 | 12.3 | 6.11 | 7.23 | – | – | CCOP(=O)(OCC)C(Nc1ccc(C)c(Nc2nccc(-c3cccnc3)n2)c1)c1ccc(F)cc1 (stereo not given) | – | – | – | – | – | – | – | – | – | –
13.6 | 17.5 | 5.81 | 1.59 | 2.11 | 0.042 | 0.022 | CCOP(=O)(OCC)C(Nc1ccc(C)c(Nc2nccc(-c3cccnc3)n2)c1)c1ccc[nH]1 (stereo not given) | 95.3 | 7 | Active | Active | Active | Active | Active | Active | Active | Active
40.2 | 42.1 | 32.1 | 8.88 | 9.02 | – | – | CCOP(=O)(OCC)C(Nc1ccc(C)c(Nc2nccc(-c3cccnc3)n2)c1)c1ccccc1 (stereo not given) | – | – | – | – | – | – | – | – | – | –
32.6 | 34 | 21.1 | 6.86 | 8.18 | – | – | CCOP(=O)(OCC)C(Nc1ccc(C)c(Nc2nccc(-c3cccnc3)n2)c1)N1CCCCC1 (stereo not given) | – | – | – | – | – | – | – | – | – | –
24 | 24.8 | 12 | 6.09 | 7.19 | – | – | CCOP(=O)(OCC)C(Nc1ccc(C)c(Nc2nccc(-c3cccnc3)n2)c1)c1ccc(Cl)cc1 (stereo not given) | – | – | – | – | – | – | – | – | – | –
24.3 | 24.9 | 13 | 6.42 | 7.87 | – | – | CCOP(=O)(OCC)C(Nc1ccc(C)c(Nc2nccc(-c3cccnc3)n2)c1)c1ccc(OC)cc1 (stereo not given) | – | – | – | – | – | – | – | – | – | –
15.1 | 18.6 | 6.88 | 2.36 | 3.01 | 0.015 | 0.012 | CCOP(=O)(OCC)C(Nc1ccc(C)c(Nc2nccc(-c3cccnc3)n2)c1)c1ccn[nH]1 (stereo not given) | 83.2 | 5.5 | – | – | – | – | – | – | – | –
